The values below come from US4670562A, “Dihydropyrrolo[1,2-b]isoquinolinedione oximes” (priority 1986, dated 1987).

Read-outs that look alike come from different tables or passages of the source.

This experiment has as its target acetylcholinesterase (Homo sapiens, UniProt P22303). As to the kind of experiment: Cholinesterase Inhibition Assay (photometric method of Ellman et al.). The format is biochemical. For orientation: Ellman's reagent forms a yellow product with free thiols.
The mark [1] stands for this setting: photometric method of Ellman et al., read-out: Cholinesterase Inhibition IC50.

acetylcholinesterase, sequence (P22303 32-614): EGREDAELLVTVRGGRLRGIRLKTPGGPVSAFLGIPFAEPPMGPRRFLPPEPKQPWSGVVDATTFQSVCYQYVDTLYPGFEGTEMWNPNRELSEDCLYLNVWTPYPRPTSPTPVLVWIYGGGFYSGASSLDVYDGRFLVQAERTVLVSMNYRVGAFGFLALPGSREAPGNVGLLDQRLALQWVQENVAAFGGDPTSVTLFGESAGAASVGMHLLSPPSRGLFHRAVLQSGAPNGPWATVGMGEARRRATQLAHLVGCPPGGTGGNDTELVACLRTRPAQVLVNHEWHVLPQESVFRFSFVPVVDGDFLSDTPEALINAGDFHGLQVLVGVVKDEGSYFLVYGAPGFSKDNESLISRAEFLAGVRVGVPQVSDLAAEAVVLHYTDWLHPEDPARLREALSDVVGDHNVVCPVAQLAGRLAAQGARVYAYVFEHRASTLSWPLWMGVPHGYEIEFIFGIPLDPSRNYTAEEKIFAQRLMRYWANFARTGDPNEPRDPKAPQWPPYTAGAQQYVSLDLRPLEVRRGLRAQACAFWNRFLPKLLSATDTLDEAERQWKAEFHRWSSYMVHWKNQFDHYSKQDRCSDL

With `c1ccc2c3c(ncc2c1)CCCN3` [1,2,3,4-Tetrahydrobenzo[c]-1,5-naphthyridine], under setting [1], the IC50 turned out to be 61 µM.
As to `CN1CCN(C2=Nc3c(ncc4ccccc34)CC2)CC1` [3,4-Dihydro-2-(4-methyl-1-piperazinyl)benzo[c]-1,5-naphthyridine hemihydrate], half-maximal inhibition (IC50) was put at 840 µM.
Regarding `O=C(Cc1ccccc1)N1CCCc2ncc3ccccc3c21` [1-(Phenylacetyl)-1,2,3,4-tetrahydrobenzo[c]-1,5-naphthyridine], the IC50 under setting [1] came to 320 µM.

By IC50 is commonly meant the point on the concentration scale where inhibition reaches its midpoint.
